Data taken from patent US8282688B2, “Laccase mediators and methods of use” (Danisco US Inc., priority 2006, dated 2012).
Where “and” joins values, the source holds several entries; their conditions need not be identical. Identical values can stand only once.

Experiments:
Assay type in all cases: biochemical
[1] = tested on: Cerrena unicolor Laccase (recombinant laccase D); assay: Laccase bleaching of stonewashed denim legs, effect of temperature, Unimac, recombinant laccase D (Example 9); details: laccase 0.05 g/l/0.4 U/ml, pH 6, 30 minutes
Method: (§1) Denim, 12 legs weighing approximately 3 kg, was desized in a Unimac UF 50 washing machine under the following conditions: • Desizing for 15 minutes at 10:1 liquor ratio 50° C. with 0.5 g/l (15 g) of Optisize 160 amylase (Genencor) and 0.5 g/l (15 g) of a non-ionic surfactant (e.g. Rucogen BFA, (Rudolf Chemie) or Ultravon GPN, (Huntsman)) • 2 cold rinses for 5 minutes at 30:1 liquor ratio.
(§2) Following desizing the denim was stonewashed in a Unimac UF 50 washing machine under the following conditions: • Cold rinse for 5 minutes at 10:1 liquor ratio • Stonewashing for 60 minutes at 10:1 liquor ratio 55° C. with 1 kg of pumice stone, citrate buffer (30 g tri-sodium citrate dihydrate and 30 g citric acid monohydrate) and 35 g IndiAge 2XL cellulase (Genencor). • 2 cold rinses for 5 minutes at 30:1 liquor ratio.
(§3) Denim legs were evaluated with a Minolta Chromameter CR 310 in the CIE Lab color space with a D 65 light source. Measurements were done only after laccase treatment. For each denim leg 8 measurements are taken and the result of the 12 legs (96 measurements) was averaged.
Laccase bleaching of stonewashed denim: Denim, 12 legs approximately 3 kg, was desized and stonewashed as described in example 8. After stonewashing a laccase treatment was done in a Unimac UF 50 washing machine according to the following process: • 30 minutes at 10:1 liquor ratio, • pH 6 (21 g monosodium phosphate and 5 g adipic acid, recombinant laccase D) or pH 4.8 (8.6 g monosodium phosphate and 16.8 g of adipic acid, Novoprime Base 268 laccase) • laccase (recombinant laccase D or Novoprime Base 268) • mediator (syringamide (SA) and syringonitrile (SN)) • After laccase treatment the denim use rinsed twice in cold water for 5 minutes at 30:1 liquor ratio.

[2] = tested on: Cerrena unicolor Laccase (recombinant laccase D); assay: Laccase bleaching of stonewashed denim legs, laccase dose response, Unimac (Example 11); details: pH 6, 60° C., 30 minutes
Method: as §1, §2, §3
Laccase bleaching of stonewashed denim—Denim, 12 legs weighing approximately 3 kg, was desized and stonewashed as described in Example 8. After stonewashing, a laccase treatment was done according to the following process: 30 minutes at 10:1 liquor ratio and pH 6 (21 g monosodium phosphate and 5 g adipic acid) and 60° C. with laccase and mediator. After laccase treatment the denim use rinsed twice in cold water for 5 minutes at 30:1 liquor ratio.

[3] = tested on: recombinant laccase D from C. unicolor; assay: Bleaching of denim swatches with recombinant C. unicolor laccase D (Example 5); set-up: key to ΔE (total color difference) Denim swatch Backside / ΔE (total color difference) Denim swatch Frontside: CIE L*a*b* differences, initial minus final; ΔE=(ΔL²+Δa²+Δb²)^1/2
Method: Denim legs (made out of sulfur bottom/indigo dyed denim fabric from Cone Mill, style number 1662P) were pretreated with IndiAge® 2XL at a dose of 1 gram per liter in a 50 lb lab scale tumbling washer. The liquor ratio was 6 to 1 (5 kg substrate in 30 liters of water) and the treatment was performed at 55° C. at pH 4.5 for 1 hour. A warm rinse followed the cellulase treatment, after which the fabric was dried in a tumble dryer. A punch press was used to cut ⅝ inch denim disks from IndiAge® 2XL pretreated denim legs. Each denim disk is pre read with a Chroma Meter CR-200 by Minolta in order to determine the CIE L*a*b* values of both the front and backside of the fabric disk.
One denim disk is placed in each well of two duplicate 12 well micro-titer plates. Each well received C. unicolor laccase (20 uL of 1/20 dilution, approx. 20 ppm), mediator (200, 100, 50 or 20 uL of a 20 mM stock solution in methanol) and 50 mM potassium phosphate buffer, pH 6 for a total volume of 2 mL/well. The mediators were methyl syringate (MS), 4-cyano-2,6-dimethoxyphenol (SN) and 3,4,5-trimethoxyphenol (TMP). The plates were sealed and incubated at 50° C. for 2 hours at 150 rpm in a standard incubator. Following this period, the swatches were removed from the plates and carefully placed on a filter paper in a Buchner funnel and washed with copious amounts of water, followed by drying of the residual water under high vacuum overnight. The swatches were then re-read with the chromometer in order to determine the CIE L*a*b* values of both the front and backside of the disk following bleaching. The total color difference (ΔE) is calculated from the difference between the initial and final CIE L*a*b* values according to the formula ΔE=(ΔL^2+Δa^2+Δb^2)^1/2 The total color differences (ΔE) as a function of mediator concentration are plotted in FIGS. 5 and 6.
A denim swatch bleaching assay was performed as described in Example 16, in this instance, using a recombinant form of the laccase D protein derived from C. unicolor.
Two duplicate 12-well plates were loaded with denim disks. The laccase D stock solution (5.5 ABTS units per mL) was dosed at either 25 or 50 uL per well. The mediators used were methyl syringate (MS), 4-cyano-2,6-dimethoxyphenol (SN) and 4-carboxamido-2,6-dimethoxyphenol (SA) and were used at either 0.5 or 1 mM concentration. The results are depicted in FIGS. 7 and 8.

[4] = mediator 0.5 mM, laccase D stock (5.5 U/mL) 25 uL
[5] = mediator 0.5 mM, laccase D stock (5.5 U/mL) 50 uL
[6] = mediator 1 mM, laccase D stock (5.5 U/mL) 25 uL
[7] = mediator 1 mM, laccase D stock (5.5 U/mL) 50 uL

| SMILES | ΔE (total color difference) Denim swatch Backside [3, 4] | ΔE (total color difference) Denim swatch Frontside [3, 4] | ΔL Denim swatch Backside [3, 4] | ΔL Denim swatch Frontside [3, 4] | Δb Denim swatch Backside [3, 4] | Δb Denim swatch Frontside [3, 4] | ΔE (total color difference) Denim swatch Backside [3, 5] | ΔE (total color difference) Denim swatch Frontside [3, 5] | ΔL Denim swatch Backside [3, 5] | ΔL Denim swatch Frontside [3, 5] | Δb Denim swatch Backside [3, 5] | Δb Denim swatch Frontside [3, 5] | ΔE (total color difference) Denim swatch Backside [3, 6] | ΔE (total color difference) Denim swatch Frontside [3, 6] | ΔL Denim swatch Backside [3, 6] | ΔL Denim swatch Frontside [3, 6] | Δb Denim swatch Backside [3, 6] | Δb Denim swatch Frontside [3, 6] | ΔE (total color difference) Denim swatch Backside [3, 7] | ΔE (total color difference) Denim swatch Frontside [3, 7] | further results |
| --- | --- | --- | --- | --- | --- | --- | --- | --- | --- | --- | --- | --- | --- | --- | --- | --- | --- | --- | --- | --- | --- |
| COc1cc(C(N)=O)cc(OC)c1O [SA, 4-carboxamido-2,6-dimethoxyphenol] | 6.69 and 6.39 | 5.07 and 5.70 | 4.94 and 4.93 | 4.73 and 5.28 | 4.51 and 4.05 | 1.16 and 1.47 | 6.15 and 6.71 | 3.96 and 4.75 | 4.64 and 5.25 | 3.66 and 4.46 | 4.04 and 4.17 | 0.87 and 0.88 | 8.92 and 8.37 | 7.55 and 7.70 | 7.02 and 6.53 | 7.07 and 7.19 | 5.51 and 5.22 | 1.76 and 1.68 | 8.72 and 9.16 | 6.72 and 7.93 | Bleaching level (CIE L) ([1]; mediator 0.33 mM, 40 ° C.): 35.6; Bleaching level (CIE L) ([1]; mediator 0.33 mM, 60 ° C.): 35.6; Bleaching level (CIE L) ([2]; Syringamide 0.33 mM, Cerrena unicolor laccase 0.010 g/l): 34.6; Bleaching level (CIE L) ([2]; Syringamide 0.33 mM, Cerrena unicolor laccase 0.05 g/l): 36.2; Bleaching level (CIE L) ([2]; Syringamide 0.33 mM, Cerrena unicolor laccase 0.25 g/l): 36.2; ΔL Denim swatch Backside [3, 7]: 6.52 and 6.82; ΔL Denim swatch Frontside [3, 7]: 6.23 and 7.37; Δa Denim swatch Backside [3, 7]: 0.15 and 0.10; Δb Denim swatch Backside [3, 7]: 5.79 and 6.12; Δb Denim swatch Frontside [3, 7]: 1.73 and 2.11 |
| COc1cc(C#N)cc(OC)c1O [SN, 4-cyano-2,6-dimethoxyphenol] | 11.62 and 11.54 | 9.98 and 10.48 | 9.69 and 9.31 | 9.23 and 9.73 | 6.41 and 6.81 | 3.12 and 3.39 | 10.67 and 10.48 | 8.70 and 9.31 | 8.87 and 8.45 | 8.20 and 8.67 | 5.93 and 6.19 | 2.34 and 2.90 | 13.85 and 13.07 | 13.24 and 13.88 | 11.36 and 10.64 | 12.31 and 12.85 | 7.93 and 7.59 | 4.36 and 4.85 | 14.05 and 14.15 | 14.18 and 14.15 | Bleaching level (CIE L) ([1]; mediator 0.47 mM, 40 ° C.): 35.7; Bleaching level (CIE L) ([1]; mediator 0.47 mM, 60 ° C.): 35.9; Bleaching level (CIE L) ([2]; Syringonitrile 0.39 mM, Cerrena unicolor laccase 0.25 g/l): 37.7; Bleaching level (CIE L) ([2]; Syringonitrile 0.39 mM, Cerrena unicolor laccase 0.4 g/l): 39.5; Bleaching level (CIE L) ([2]; Syringonitrile 0.39 mM, Cerrena unicolor laccase 0.53 g/l): 38.8; Δa Denim swatch Backside [3, 5]: 0.26 and 0.33; ΔL Denim swatch Backside [3, 7]: 11.25 and 10.98; ΔL Denim swatch Frontside [3, 7]: 12.98 and 12.85; Δa Denim swatch Backside [3, 7]: 0.29 and 0.48; Δb Denim swatch Backside [3, 7]: 8.41 and 8.91; Δb Denim swatch Frontside [3, 7]: 5.33 and 5.50; effectiveness as mediator for swatch bleaching ([3]; recombinant laccase D, mediator 0.5 or 1 mM): most effective mediator |
